Measured values: patent US5807825A, “Platelet aggregation inhibitors” (COR Therapeutics, Inc., priority 1995, dated 1998)
Where a SMILES comes first, the peptide text is derived from it. Bridges are numbered along the chain shown (N, C = ends).

Assays:
[1] = system: thrombi formation in dog coronary arteries; assay: Folts model of thrombosis, cyclic flow reductions (CFRs) in open chest dog coronary artery; format: in vivo
Protocol: A. Initiation of cyclic flow reductions (CFRs) in open chest dog. An occluder placed on the left anterior descending (LAD) coronary artery of a 20 kg dog, as previously described was performed.

GP IIb-IIIa = target: T1, GP IIb-IIIa (Homo sapiens, UniProt P05106+P08514); assay: plate assay: binding of labeled ligand (fibrinogen, vWF) to immobilized purified GP IIb-IIIa; details: plate assays, in words; FIGS. 2A-2C, 30A-30E
T1 construct: Purified platelet GP IIb-IIIa receptor was prepared as described by Fitzgerald, L. A., et al; from tissue; host or cells: platelets
Protocol: In the assay, GP IIb-IIIa, prepared in purified form, for example as described by Fitzgerald, L. A., et al., Anal Biochem (1985) 151:169-177, incorporated herein by reference, is coated onto a solid support such as beads, test tubes, or microtiter plates. […] Fibrinogen is typically provided at a concentration of about 5-50 nM and the test material can, if desired, be added at a series of dilutions. Typical incubations are 2-4 hr at 35° C., the time and temperature being interdependent.
After incubation, the solution containing the fibrinogen and test material is removed and the level of binding of fibrinogen measured by quantitating bound fibrinogen to GP IIb-IIIa. Any suitable means of detection may be used, but it is convenient to employ labeled fibrinogen, for example using radioactive, fluorescent or biotinylated labels. Such methods are well known and need not be elaborated here.
In this case, percent inhibition may be calculated using the amount of Fg bound in the control as representing the basis, so that [formula] Other measures of inhibition effectiveness, such as IC50, may also be used.
Purified platelet GP IIb-IIIa receptor was prepared as described by Fitzgerald, L. A., et al., Anal Biochem (1985) 151:169-177. […] After purification, the receptors were stored in 0.1% Triton X-100 at 0.1-1.0 mg/ml. […]
The labeled ligands were added to the receptor-coated wells at final concentration of 10 nM (100 ul/well) and incubated for 3 h at 30° C. in the presence or absence of the test samples. After incubation, the wells are aspirated to dryness and bound ligand is quantitated.
For ^125 I-labeled ligands, the protein is solubilized with 250 ul SDS. For biotinylated ligands, the bound protein is detected by the addition of antibiotin antibody conjugated to alkaline phosphatase followed by addition of substrate (p-nitrophenyl phosphate), and determination of the optical density of each well at 405 nm. […]

M21 melanoma cells = assay: attachment of 35S-methionine labelled M21 melanoma cells to vitronectrin-coated plates; format: cell-based; details: FIGS. 31-34
Protocol: M21 melanoma cells, which express high levels of the vitronectrin receptor, were metabolically labelled with ^35 S-methionine, and then added to 24-well tissue culture plates coated with vitronectrin. An incubation period of 1 hr at 37° C. was allowed for cell attachment, and this was followed by a wash to remove non-adherent cells. After washing, the adherent cells were solubilized, and the supernatants placed in a liquid scintillation counter. The fraction of cells remaining adherent was calculated by dividing the cpm in the solubilized supernatants by the cpm in the total number of cells added to each well. The effects of purified snake venom peptides and synthetic cyclic peptides on cell adhesion was determined by including them with the M21 cells during the incubation period.
M21 melanoma cells were labelled with ^35 S-methionine, and then added to vitronectrin-coated plates in the presence of the indicated concentrations of purified snake venom peptides. Cell attachment was measured by solubilizing the cells remaining after an incubation and wash, as described in Section C, on page 40.

vitronectrin receptor [2] = target: T2, vitronectrin receptor (Homo sapiens, UniProt P05106+P06756); assay: plate assay: binding of labeled ligand (vitronectrin, vWF) to immobilized vitronectrin receptor; details: FIGS. 26-28
T2 construct: Vitronectrin receptor was prepared as described by Smith, J. W., J Biol Chem (1988) 263:18726-18731; from tissue

vitronectrin receptor [3] = target: T2, vitronectrin receptor; details: background art; compared with same peptide before cyclization; cited from earlier work
fibronectin receptor = fibronectin receptor (Homo sapiens, UniProt P05556+P08648); details: background art; cited from earlier work
Chain of fibronectin receptor (P08648 42-894 limits assumed): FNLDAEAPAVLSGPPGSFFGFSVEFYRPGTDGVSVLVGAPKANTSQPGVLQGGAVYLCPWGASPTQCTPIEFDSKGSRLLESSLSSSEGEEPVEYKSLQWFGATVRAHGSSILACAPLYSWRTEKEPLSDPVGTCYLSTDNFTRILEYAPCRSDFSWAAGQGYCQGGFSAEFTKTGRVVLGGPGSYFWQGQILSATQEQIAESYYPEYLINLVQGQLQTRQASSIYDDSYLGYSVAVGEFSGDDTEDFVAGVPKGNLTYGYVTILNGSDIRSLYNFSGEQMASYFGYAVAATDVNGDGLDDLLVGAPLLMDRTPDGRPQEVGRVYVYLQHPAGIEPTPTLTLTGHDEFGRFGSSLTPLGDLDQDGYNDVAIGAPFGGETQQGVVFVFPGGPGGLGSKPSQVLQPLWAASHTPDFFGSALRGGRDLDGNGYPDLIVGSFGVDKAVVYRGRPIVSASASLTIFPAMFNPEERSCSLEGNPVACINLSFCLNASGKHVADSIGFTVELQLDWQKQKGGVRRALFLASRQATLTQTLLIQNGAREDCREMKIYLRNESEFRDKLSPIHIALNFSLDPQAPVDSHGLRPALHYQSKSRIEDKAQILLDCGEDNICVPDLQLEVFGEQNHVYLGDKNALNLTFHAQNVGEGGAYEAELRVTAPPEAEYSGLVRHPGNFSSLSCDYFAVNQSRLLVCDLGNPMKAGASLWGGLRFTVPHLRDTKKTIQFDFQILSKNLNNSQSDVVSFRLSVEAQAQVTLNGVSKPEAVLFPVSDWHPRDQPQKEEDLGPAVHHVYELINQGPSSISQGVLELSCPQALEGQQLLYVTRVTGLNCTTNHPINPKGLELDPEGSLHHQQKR
Chain of fibronectin receptor (P08648 895-1049 partner limits assumed): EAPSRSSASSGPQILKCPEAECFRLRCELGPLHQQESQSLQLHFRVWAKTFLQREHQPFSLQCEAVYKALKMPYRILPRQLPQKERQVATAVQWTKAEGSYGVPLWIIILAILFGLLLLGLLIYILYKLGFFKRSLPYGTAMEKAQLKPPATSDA
Chain of fibronectin receptor (P05556 21-798): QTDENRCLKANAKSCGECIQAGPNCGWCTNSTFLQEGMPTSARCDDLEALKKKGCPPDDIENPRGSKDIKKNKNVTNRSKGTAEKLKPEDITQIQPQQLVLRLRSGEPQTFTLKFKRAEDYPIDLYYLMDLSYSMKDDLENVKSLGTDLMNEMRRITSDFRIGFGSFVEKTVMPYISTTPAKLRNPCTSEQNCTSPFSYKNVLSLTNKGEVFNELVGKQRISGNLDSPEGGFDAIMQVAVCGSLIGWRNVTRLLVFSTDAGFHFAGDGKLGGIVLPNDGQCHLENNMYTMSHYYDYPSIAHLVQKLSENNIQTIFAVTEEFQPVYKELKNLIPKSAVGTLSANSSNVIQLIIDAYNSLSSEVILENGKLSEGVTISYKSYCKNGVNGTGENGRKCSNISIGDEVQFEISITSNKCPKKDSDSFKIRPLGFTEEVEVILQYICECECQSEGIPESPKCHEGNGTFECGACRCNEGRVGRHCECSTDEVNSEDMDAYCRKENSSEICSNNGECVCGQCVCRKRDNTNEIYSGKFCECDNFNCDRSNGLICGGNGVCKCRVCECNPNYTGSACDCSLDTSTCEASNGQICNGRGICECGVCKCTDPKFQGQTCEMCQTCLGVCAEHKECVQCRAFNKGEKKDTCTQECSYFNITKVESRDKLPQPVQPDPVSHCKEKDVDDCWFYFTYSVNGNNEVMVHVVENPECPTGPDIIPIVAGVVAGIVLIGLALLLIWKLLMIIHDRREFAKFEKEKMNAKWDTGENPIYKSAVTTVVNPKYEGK

T1 sequence (P08514 32-887 limits assumed): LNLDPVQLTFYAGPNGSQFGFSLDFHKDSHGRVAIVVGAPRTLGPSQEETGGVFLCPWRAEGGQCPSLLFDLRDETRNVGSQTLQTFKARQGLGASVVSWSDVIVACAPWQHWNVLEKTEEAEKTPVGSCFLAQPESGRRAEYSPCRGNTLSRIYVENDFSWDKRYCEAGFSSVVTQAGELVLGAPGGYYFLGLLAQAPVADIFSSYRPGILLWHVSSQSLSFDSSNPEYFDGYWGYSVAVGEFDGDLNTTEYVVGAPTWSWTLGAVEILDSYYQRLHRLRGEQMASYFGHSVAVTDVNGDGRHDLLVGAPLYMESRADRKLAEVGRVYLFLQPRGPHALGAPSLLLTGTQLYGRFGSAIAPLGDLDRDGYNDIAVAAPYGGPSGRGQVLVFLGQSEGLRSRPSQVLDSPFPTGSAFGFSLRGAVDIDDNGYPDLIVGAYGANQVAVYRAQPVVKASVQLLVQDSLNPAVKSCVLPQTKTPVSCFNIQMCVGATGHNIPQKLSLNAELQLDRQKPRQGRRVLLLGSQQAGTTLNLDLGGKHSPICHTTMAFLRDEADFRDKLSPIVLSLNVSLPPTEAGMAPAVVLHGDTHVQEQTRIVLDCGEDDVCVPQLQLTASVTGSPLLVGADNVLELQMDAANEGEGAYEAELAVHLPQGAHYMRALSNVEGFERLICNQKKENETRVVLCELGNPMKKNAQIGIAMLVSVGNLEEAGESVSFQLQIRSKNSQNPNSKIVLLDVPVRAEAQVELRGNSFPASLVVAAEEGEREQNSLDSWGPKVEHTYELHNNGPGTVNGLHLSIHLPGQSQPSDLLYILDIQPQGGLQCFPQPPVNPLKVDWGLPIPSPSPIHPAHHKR
T1 sequence (P08514 891-1039 partner limits assumed): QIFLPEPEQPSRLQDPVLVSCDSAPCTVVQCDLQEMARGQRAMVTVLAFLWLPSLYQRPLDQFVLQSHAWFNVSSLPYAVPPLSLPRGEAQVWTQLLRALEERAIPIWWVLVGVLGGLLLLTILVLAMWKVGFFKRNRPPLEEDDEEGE
T1 sequence (P05106 27-788): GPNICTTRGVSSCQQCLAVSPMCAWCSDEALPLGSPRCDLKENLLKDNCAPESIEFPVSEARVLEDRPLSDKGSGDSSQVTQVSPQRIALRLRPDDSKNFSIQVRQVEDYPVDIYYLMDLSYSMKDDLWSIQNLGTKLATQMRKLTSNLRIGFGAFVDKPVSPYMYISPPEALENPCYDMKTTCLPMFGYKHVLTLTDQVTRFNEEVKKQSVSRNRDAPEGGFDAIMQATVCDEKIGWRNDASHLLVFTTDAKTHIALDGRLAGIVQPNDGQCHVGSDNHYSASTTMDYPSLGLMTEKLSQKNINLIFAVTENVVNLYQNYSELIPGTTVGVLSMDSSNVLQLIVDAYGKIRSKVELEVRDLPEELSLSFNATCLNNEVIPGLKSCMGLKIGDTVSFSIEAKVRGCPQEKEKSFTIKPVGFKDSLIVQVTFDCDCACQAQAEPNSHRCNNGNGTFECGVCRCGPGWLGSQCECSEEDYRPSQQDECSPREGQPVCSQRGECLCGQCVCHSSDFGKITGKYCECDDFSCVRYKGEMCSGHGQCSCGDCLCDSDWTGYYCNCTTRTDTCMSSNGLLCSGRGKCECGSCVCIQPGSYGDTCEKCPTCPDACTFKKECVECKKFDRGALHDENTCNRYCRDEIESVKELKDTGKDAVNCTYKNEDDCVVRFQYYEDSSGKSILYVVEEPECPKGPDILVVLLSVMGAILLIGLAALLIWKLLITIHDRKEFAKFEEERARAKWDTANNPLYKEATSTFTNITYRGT
T2 sequence (P06756 31-889 limits assumed): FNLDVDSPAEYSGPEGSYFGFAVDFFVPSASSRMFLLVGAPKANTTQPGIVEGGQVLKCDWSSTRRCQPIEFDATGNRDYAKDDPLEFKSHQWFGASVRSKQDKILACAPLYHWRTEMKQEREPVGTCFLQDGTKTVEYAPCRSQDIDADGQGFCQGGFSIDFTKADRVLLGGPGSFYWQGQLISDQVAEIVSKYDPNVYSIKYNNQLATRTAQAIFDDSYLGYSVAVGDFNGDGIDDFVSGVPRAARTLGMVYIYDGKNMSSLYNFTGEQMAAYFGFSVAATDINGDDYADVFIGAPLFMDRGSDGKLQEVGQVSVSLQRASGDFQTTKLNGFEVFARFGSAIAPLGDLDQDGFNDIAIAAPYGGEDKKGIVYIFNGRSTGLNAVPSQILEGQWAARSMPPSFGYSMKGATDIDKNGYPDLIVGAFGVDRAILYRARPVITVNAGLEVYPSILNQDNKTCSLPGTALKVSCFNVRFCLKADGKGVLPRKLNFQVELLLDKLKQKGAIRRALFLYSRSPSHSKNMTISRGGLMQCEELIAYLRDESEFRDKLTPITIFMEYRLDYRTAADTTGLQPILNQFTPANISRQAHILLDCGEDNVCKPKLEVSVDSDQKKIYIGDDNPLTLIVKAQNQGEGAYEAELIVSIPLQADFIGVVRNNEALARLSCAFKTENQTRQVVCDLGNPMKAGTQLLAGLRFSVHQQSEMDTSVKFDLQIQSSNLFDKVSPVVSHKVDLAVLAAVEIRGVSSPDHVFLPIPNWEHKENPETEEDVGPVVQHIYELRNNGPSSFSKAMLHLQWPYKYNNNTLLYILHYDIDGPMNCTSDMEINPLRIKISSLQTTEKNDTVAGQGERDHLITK
T2 sequence (P06756 891-1048 partner limits assumed): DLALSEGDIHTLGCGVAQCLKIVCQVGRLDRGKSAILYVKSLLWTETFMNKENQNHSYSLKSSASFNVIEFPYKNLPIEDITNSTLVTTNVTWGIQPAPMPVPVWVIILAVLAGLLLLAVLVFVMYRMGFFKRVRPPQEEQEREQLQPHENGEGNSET
T2 sequence (P05106 27-788): as the sequence (P05106 27-788) above

With `C[C@H](NC(=O)[C@@H]1CSSC[C@H](NC(=O)CN)C(=O)NCC(=O)N[C@@H](CCCCN)C(=O)NCC(=O)N[C@@H](CC(=O)O)C(=O)N[C@@H](Cc2c[nH]c3ccccc23)C(=O)N2CCC[C@H]2C(=O)N1)C(N)=O` [#3] the “effect on cyclic flow reductions (CFRs) in LAD coronary artery” value ([1]; 10 mg into a peripheral vein, 20 kg open chest dog, FIG. 36) was “partial ablation of the CFRs” and the “effect on cyclic flow reductions (CFRs) in LAD coronary artery” value ([1]; second infusion of 40 mg into a peripheral vein, FIG. 37) was “complete ablation of the CFRs”.
In the case of `C[C@H](NC(=O)[C@@H]1CSSC[C@H](NC(=O)CN)C(=O)N[C@@H](CCCCN)C(=O)NCC(=O)N[C@@H](CC(=O)O)C(=O)N[C@@H](Cc2c[nH]c3ccccc23)C(=O)N2CCC[C@H]2C(=O)N1)C(N)=O` [#4] (H-GCKGDWPCA-NH2; disulfide 2-8), the “specificity: inhibition of fibrinogen/GP IIb-IIIa binding compared with vitronectrin/vitronectrin receptor binding” value (GP IIb-IIIa) is reported as “highest differential”.
In the case of `NCCCC[C@@H]1NC(=O)CNC(=O)[C@@H](N)CSSC[C@@H](C(N)=O)NC(=O)[C@@H]2CCCN2C(=O)[C@H](Cc2c[nH]c3ccccc23)NC(=O)[C@H](CC(=O)O)NC(=O)CNC1=O` [#5] (H-CGKGDWPC-NH2; disulfide 1-8), the “specificity: inhibition of fibrinogen/GP IIb-IIIa binding compared with vitronectrin/vitronectrin receptor binding” value (GP IIb-IIIa) is reported as “quite specific”.
For `C[C@H](NC(=O)[C@@H]1CSSC[C@H](NC(=O)CN)C(=O)N[C@@H](CCCCN)C(=O)NCC(=O)N[C@@H](CC(=O)O)C(=O)N[C@@H](Cc2c[nH]c3ccccc23)C(=O)N1)C(N)=O` [#7] (H-GCKGDWCA-NH2; disulfide 2-7), the “specificity: inhibition of fibrinogen/GP IIb-IIIa binding compared with vitronectrin/vitronectrin receptor binding” value (GP IIb-IIIa) was “quite specific”.
For `C[C@H](NC(=O)[C@@H]1CSSC[C@H](NC(=O)CN)C(=O)NCC(=O)N[C@@H](CCCCN)C(=O)NCC(=O)N[C@@H](CC(=O)O)C(=O)N[C@@H](Cc2c[nH]c3ccccc23)C(=O)N2CCC[C@H]2C(=O)N1)C(N)=O` [Analog #3, G-C-G-K-G-D-W-P-C-A-NH2], the “effect on M21 cell adhesion/attachment to vitronectrin, in words” value (shortened to “effect on M21 cell adhesion/attachment”) (M21 melanoma cells) was “ineffective up to 60 uM”.
With `N=C(N)NCCC[C@H](N)C(=O)NCC(=O)N[C@@H](CC(=O)O)C(=O)N[C@@H](CO)C(=O)O` [RGDS, reference compound] the “effect on M21 cell adhesion/attachment” value (M21 melanoma cells) was “potent inhibitors of cell attachment”.
In the case of `C[C@H](NC(=O)[C@@H]1CSSC[C@H](NC(=O)CN)C(=O)NCC(=O)N[C@@H](CCCNC(=N)N)C(=O)NCC(=O)N[C@@H](CC(=O)O)C(=O)N[C@@H](Cc2c[nH]c3ccccc23)C(=O)N2CCC[C@H]2C(=O)N1)C(N)=O` [reference compound] (H-GCGRGDWPCA-NH2; disulfide 2-9), the “effect on M21 cell adhesion/attachment” value (M21 melanoma cells) is reported as “potent inhibitors of cell attachment”.
With “ECADGLCCDQCRFLKKGTVCRVAKGDWNDDTCTGQSC- D-C-P-R-N-G-L-Y-G (ECADGLCCDQCRFLKKGTVCRVAKGDWNDDTCTGQSCDCPRNGLYG) [Analog #1]” the “effect on M21 cell adhesion/attachment” value (M21 melanoma cells) was “neither barbourin nor Peptide 1 (truncated barbourin) had a significant effect”.
For “EEPCATGPCCRRCKFKRAGKVCRVAKGDWNNDYCTGK- S-C-D-C-P-R-N-P-W-N-G (EEPCATGPCCRRCKFKRAGKVCRVAKGDWNNDYCTGKSCDCPRNPWNG) [Analog #2]”, the “inhibition of vitronectrin binding to vitronectrin receptor, in words” value (vitronectrin receptor [2]) was “inability to inhibit the binding of vitronectrin to the vitronectrin receptor”.
In the case of “Gly-Pen-Gly-Arg-Gly-Asp-Ser-Pro-Cys-Ala (GRGDSPCA; N-terminal Gly-Pen; Pen-Cys disulfide cyclisation; printed: Gly-Arg-Gly-Asp-Ser-Pro-Cys-Ala) [cyclic peptide, disulfide bridge between Pen and Cys (Pierschbacher)]”, the “inhibition of vitronectrin binding, in words” value (vitronectrin receptor [3]) is given as “able to inhibit vitronectrin binding more strongly than the same peptide before cyclization” and the “inhibition of fibronectin binding, in words” value (fibronectin receptor) is given as “ineffective in inhibiting fibronectin binding”.
